Here are results for six compounds from publication PMC4999892 (Scientific Reports, 2016).

Bridges are numbered along the chain shown (N, C = ends). Where no end group is shown, it is not given here.

The subject of data set [1] is Aspergillus fumigatus CEA17. As to the kind of experiment: Inhibition zone assay. To be noted: mutant (pyrG-), N.A. = no inhibition zone at 0.8–1.0 nmol peptides each well. It is filed as cell-based. On the procedure: (§1) Antimicrobial activity of peptides was assessed by the inhibition zone assay. Membrane permeability assay was performed according to the method previously reported. Sources of microbial strains used here are listed in Supplementary Table S2.

A further data set concerns Aspergillus nidulans A28. Kind of data set: Inhibition zone assay. It is filed as cell-based. The settings on record: N.A. = no inhibition zone at 0.8–1.0 nmol peptides each well. The procedure:
as §1

Data set [2] relates to Aspergillus nidulans RCho15. Kind of data set: Inhibition zone assay. It is filed as cell-based. The settings on record: N.A. = no inhibition zone at 0.8–1.0 nmol peptides each well. On the procedure: as §1
The next data set deals with Aspergillus niger. Kind of data set: Inhibition zone assay. It is filed as cell-based. To be noted: N.A. = no inhibition zone at 0.8–1.0 nmol peptides each well. The procedure:
as §1

The test system of data set [3] is Geotrichum candidum CCTCC AY 93038. As to the kind of experiment: Inhibition zone assay. To be noted: N.A. = no inhibition zone at 0.8–1.0 nmol peptides each well. In kind it is cell-based. On the procedure: as §1
For data set [4], the system named is Neurospora crassa CGMCC 3.1605. As to the kind of experiment: Inhibition zone assay. It is filed as cell-based. The settings on record: N.A. = no inhibition zone at 0.8–1.0 nmol peptides each well. The procedure: as §1
The subject of data set [5] is Aspergillus fumigatus CEA17, A. nidulans A28 and RCho15, A. niger, Geotrichum candidum, Neurospora crassa. The settings on record: summary of Table 1; range stated for DtDRS-1 and DRS together.
A further data set relates to B. megaterium cells. Kind of data set: Membrane permeability assay with propidium iodide. It is filed as cell-based, Bacillus megaterium.
Test in data set [6]: not given
This is another data set of the same source.

Test in data set [7]: not given
This is another data set of the same source.

Test in data set [8]: not given
The source holds these as a separate data set.

Data set [9] concerns G. candidum and N. crassa. As to the kind of experiment: Inhibition zone assay, summary over two fungal species. It is filed as cell-based. To be noted: summary of Table 1.
Data set [10] has as its system Bacillus megaterium CGMCC 1.0459. Kind of data set: Inhibition zone assay. It is filed as cell-based. The settings on record: Gram-positive, N.A. = no inhibition zone at 0.8–1.0 nmol peptides each well. On the procedure:
as §1

Data set [11] relates to Micrococcus luteus CGMCC 1.0290. As to the kind of experiment: Inhibition zone assay. In kind it is cell-based. To be noted: Gram-positive, N.A. = no inhibition zone at 0.8–1.0 nmol peptides each well. On the procedure: as §1
In data set [12] the test system is Bacillus megaterium and Micrococcus luteus. As to the kind of experiment: Inhibition zone assay, summary over two Gram-positive bacteria. To be noted: summary of Table 1. In kind it is cell-based.
Data set [13] deals with Xanthomonas oryzae pv.oryzae. To be noted: inhibition zone assay; Gram-negative; N.A. = no inhibition zone at 0.8–1.0 nmol peptides each well.
[14] abbreviates: peptides at 5× CL, milder than positive control meucin-18.

Regarding “DCLSGRYKGPCAVWDNETCRRVCKEEGRVSGHCSPSLKCWCEGC (disulfide 2-44, 11-33, 19-39, 23-41) [DtDRS-1]”, the “CL (lethal concentration)” value stood at 0.33 µM in data set [1]; 1.25 µM with Aspergillus nidulans A28; 2.03 µM in [2]; 2.63 µM in the data set on Aspergillus niger; 2.50 µM in [3]; 0.3 µM in data set [4]. In addition, in data set [5], the “Lethal concentrations (CL), range over sensitive fungi” value lay in the range of 0.1 to 2.6 µM.

Turning to `CN[C@H](CC(C)C)C(=O)N[C@H]1C(=O)N[C@@H](CC(N)=O)C(=O)N[C@H]2C(=O)N[C@H]3C(=O)N[C@H](C(=O)N[C@H](C(=O)O)c4cc(O)cc(O)c4-c4cc3ccc4O)[C@H](O)c3ccc(c(Cl)c3)Oc3cc2cc(c3O[C@@H]2O[C@H](CO)[C@@H](O)[C@H](O)[C@H]2O[C@H]2C[C@](C)(N)[C@H](O)[C@H](C)O2)Oc2ccc(cc2Cl)[C@H]1O` [vancomycin, reference compound], in the data set with B. megaterium cells (vancomycin at 10× CL, negative control), the “Effect on membrane integrity (propidium iodide fluorescence)” value (shortened to “Effect on membrane integrity”) was “no fluorescence increase”.

For the compound “RDFLSGTFGGPCWAWSGEKCRRLCIEEGHVSGHCSGAMKCWCEG (disulfide 12-34, 20-40, 24-42 (inferred)) [DRS-3-WDB]”, the Turns content stood at 18%. This compound also displayed a α-Helix content in data set [6] of 19%. In [7], this compound gave a β-Sheet content of 22%. In addition, the Unordered content in data set [8] is 41%. Moreover, the “CL (lethal concentration)” value in data set [3] was determined as 4.89 µM. Moreover, the “CL (lethal concentration)” value in [4] was 3.72 µM. Besides, in data set [9], the “CL, range over two fungal species” value fell in the range of 3.72 to 4.89 µM.

The compound “DFLSGKFKGGCMMWSGEKCRRLCKEQGAVSGHCSTNFKCWCEE (disulfide 11-33, 19-39, 23-41 (inferred)) [DtDRS-11d]” came in with a Turns content of 15%. This compound also showed a α-Helix content in [6] of 18%. Also, in data set [7], the β-Sheet content stood at 16%. Further, in [8], the Unordered content came to 53%. The “CL (lethal concentration)” value in data set [10] worked out at 0.98 µM. Besides, in data set [11], the “CL (lethal concentration)” value turned out to be 1.08 µM. Moreover, in the data set with B. megaterium cells (setting [14]), the “Effect on membrane integrity” value is recorded as “immediate fluorescence increase”. Also, the “CL, range over two Gram-positive bacteria” value in data set [12] lay in the range of 0.98 to 1.08 µM.

In turn, “DFKSGKFKGGCMAWSGEKCRRLCKEQGAVSGHCSSNFKCWCEM (disulfide 11-33, 19-39, 23-41 (inferred)) [DtDRS-11]” came in with a Turns content of 15%. For the same compound, the α-Helix content in data set [6] is 21%. In data set [7], this compound gave a β-Sheet content of 16%. This compound returned an Unordered content in data set [8] of 48%. Moreover, in data set [10], the “CL (lethal concentration)” value came to 4.41 µM. Also, the “CL (lethal concentration)” value in [11] was 3.06 µM. Moreover, in the data set on B. megaterium cells (setting [14]), the “Effect on membrane integrity” value is reported as “immediate fluorescence increase”. In [13], the “CL (lethal concentration)” value came out at 8.84 µM.

For the compound “DCLSGRYKGPCAVWDNETCRRVCKEEGRSSGHCSPSLKCWCEGC (disulfide 2-44, 11-33, 19-39, 23-41) [DRS, Drosomycin, reference compound]”, the “CL (lethal concentration)” value was determined as 0.30 µM in data set [1]; 0.45 µM with Aspergillus nidulans A28; 1.73 µM in data set [2]; 1.32 µM in the data set with Aspergillus niger; 1.89 µM in data set [3]; 0.1 µM in data set [4]. The “Lethal concentrations (CL), range over sensitive fungi” value in data set [5] fell in the range of 0.1 to 2.6 µM.
